The values that follow are results of earlier work, collected in patent US20140148379A1, “Control of Unwanted Bacteria in Fermentation Systems with Bacteriocin” (priority 2012, published 2014).

The test system of the data set is Staphylococcus aureus. The settings on record: nisin combined with the endolysin produced by Staphylococcal phage; contaminated milk.

Consider nisin, for which the effect of combination result was “strong synergistic effect”.
